pIC50: −log10 of the molar value.
assay: Compound was evaluated for inhibition against Phospholipase A2 of Croatalus adamanteus

Row | SMILES | pIC50
1 | O=C(/C=C\N(O)C1CCCCC1)c1ccc(F)cc1 | < 3.00
2 | CC(=O)ON(C=CC(=O)c1ccc(F)cc1)Cc1ccccc1 [1-(4-fluorophenyl)-3-benzyl-3-acetyloxyamino-propenone] | < 3.00
3 | CON(/C=C\C(=O)c1ccc(F)cc1)Cc1ccccc1 [(Z)-3-(Benzyl-methoxy-amino)-1-(4-fluoro-phenyl)-propenone] | < 3.00
